In US10495571B2 (priority 2014, dated 2019):

Settings: CMD-3D layer without HSA, PBS buffer, drug cM1 0.00-50 μM, DMSO 0.5%, 5%
Description: The functional layer AF1 of the second sample region REG2 was otherwise similar to the functional layer AF1 of the first sample region REG1, except that the functional layer AF1 of the first sample region REG1 comprised HSA. […] B0b denotes the input beam impinging on the second sample region REG2, and B1b denotes the reflected beam reflected from the second sample region REG2. ZV2 denotes the sample volume of the second sample region REG2.
Prior to the second test, the functional layer AF1 of the second sample region was formed by a method, which comprised: • attaching a layer of CMD-3D to the metal layer 120 of the sensor, • washing the layer of CMD-3D with an aqueous solution, which comprised 2M NaCl and 10 mM NaOH, • activating the layer of CMD-3D with an activation solution, which comprised EDC and NHS. • treating the layer of CMD-3D with an aqueous solution, which comprised MES (the bulk concentration of MES was 5 mM and pH 5.0), • deactivating the functional layer AF1 by exposing it to an aqueous solution, which comprised ethanolamine (pH 8.0). • washing the functional layer AF1 with an aqueous solution, which comprised 50 mM NaOH. […]
The curve ϕAUX,CH2(t) may be calculated e.g. by using a modified equation (7h), where the parameter C may be determined by using a modified equation (7d), and the parameter D may be determined by using a modified equation (7i). […]

Substance: indomethacine
- average value of the auxiliary angle ϕAUX,CH2(t) of the second sample region (reference, no HSA): substantially independent of the bulk concentration cM1
